Data as given in patent publication US10577610B2, “EpCAM aptamers and conjugates thereof” (Deakin University, priority 2015, dated 2020).
Where two headings read alike, the source gives them in different places. [invdT] = inverted (3'-3') thymidine; {TYE665} = TYE665 fluorescent dye

Tests used:
HEY cells = assay: Confocal microscopy internalisation into HEY cells; assay type: cell-based, human
Method: Confocal microscopy was used as a means of visualising aptamer internalisation into the cells. Both aptamers and cells were prepared in the same manner as described above before they were mixed and allowed to incubate at 37° C. The aptamers were used at a concentration of 200 nM and were allowed to incubate for 60 minutes. The concentration for the conjugate (bifunctional) aptamers was 400 nM and these were incubated with the cells for 120 minutes. Ten minutes prior to end of incubation, 2 μL of Hoechst nuclear stain (10 mg/mL) was added to cells. Cells were then washed three times with 100 μL of PBS as described above and resuspended in 20 μL (8×10^5 cells/well) in an 8-chambered slide (Lab-Tek II, Nunc) for visualisation. Cells were incubated in blocking buffer for 60 mins followed by resuspension in binding buffer containing the aptamer and incubated for 60 mins at 37° C. Bisbenzimide Hoechst 33342 (3 mg/ml) (Sigma) was added to the cells during the final 10 min of incubation. The aptamer solution was removed and the cells were washed three times for 5 min each in PBS prior to visualisation using a FluoView FV10i laser scanning confocal microscope (Olympus).
As with the anti-TfR single aptamers, it was necessary to ensure that the binding that had been observed could be attributed to cellular internalisation rather than surface attachment. This was done in a similar manner as before. […]

[1] = mouse, in vivo
[2] = 40 nmol/Kg i.v.
Method: NOD/SCID mice received a single i.v. injection of 40 nmol/Kg of transferrin/EpCAM aptamer with four various structures (TEPP: Bi3 transferrin^+/EpCAM^+; TEPN: transferrin^+/EpCAM^−; TENP: transferrin^−/EpCAM^+; TENN: Bi1 transferrin^−/EpCAM^−). The concentration of aptamers, expressed as % of injected dose (ID) per mg of tissue, in tissues indicated was determined at 30 min and 60 min after the agent administration using ELISA. Data are means±SEM (n=3).
To evaluate the advantage of positive transferrin-modified aptamers over their negative transferrin-modified counterparts in brain uptake, the biodistribution of aptamers with four various structures (transferrin+/EpCAM+, transferrin+/EpCAM−, transferrin−/EpCAM+, transferrin−/EpCAM−) were studied at 30 min and 60 min after a single i.v. injection of these agents at a dosage of 40 nmol/Kg into NOD/SCID mice.

## Bi1: aptamer conjugate based on TfR1 and scrambled EpCAM binding loop, negative control, SEQ ID NO:8 (GCGCGTGCACGCGCTAACGGATTCCTTTTCCGN; listed as DNA, further chemistry not given here)
HEY cells; conjugate aptamers, 400 nM, two hour
  Internalisation into EpCAM-positive HEY cell line: observed to internalise
[1]
  Fluorescent signal in dissected brain: no signal

## TfR3: version of TfR1 with scrambled binding loop sequence, SEQ ID NO:6 (DNA GCGTGGTACCACGC; DNA, 5' {TYE665}, 3' [invdT], backbone not given here)
HEY cells
  Internalisation of anti-TfR aptamer into HEY cells: not detected

## 5′-GCGCGGTACCGCGCTAACGGAGGTTGCGTCCGT-3′ (GCGCGGTACCGCGCTAACGGAGGTTGCGTCCGN; listed as DNA, chemistry not given here) [Bi3]
[2]; 30 min
  Accumulation in brain, fold higher than transferrin−/EpCAM+: 3.1 fold
  Accumulation in brain, fold higher than transferrin−/EpCAM−: 12.2 fold
[2]; 60 min
  Accumulation in brain, fold higher than transferrin−/EpCAM+: 2.5 fold
  Accumulation in brain, fold higher than transferrin−/EpCAM−: 10.8 fold
